Read-outs that look alike come from different tables or passages of the source.
Tests used:
[1] = molecular target: T1, BRD4 (BD1) (Homo sapiens, UniProt O60885); assay: Binding assay BRD4/acetylated peptide H4 (TR-FRET protein-protein interaction assay)
T1 construct: amino acids 67-152, longer constructs also being possible, preferably amino acids 44-168; made in house; host or cells: E. coli
Text: To assess the BRD4 binding strength of the substances described in this application, the ability thereof to inhibit the interaction between BRD4 (BD1) and acetylated histone H4 in a dose-dependent manner was quantified.
For this purpose, a time-resolved fluorescence resonance energy transfer (TR-FRET) assay was used, which measures the binding between N-terminally His6-tagged BRD4 (BD1) (amino acids 67-152, longer constructs also being possible, preferably amino acids 44-168) and a synthetic acetylated histone H4 (Ac-H4) peptide with sequence GRGK(Ac)GGK(Ac)GLGK(Ac)GGAK(Ac)RHGSGSK-biotin. The recombinant BRD4 protein produced in-house according to Filippakopoulos et al., Nature, 2010, 468:1119-1123 was expressed in E. coli and purified by means of (Ni-NTA) affinity and (Sephadex G-75) size exclusion chromatography. The Ac-H4 peptide can be purchased, for example, from Biosyntan (Berlin, Germany).
In the assay, typically 11 different concentrations of each substance (0.1 nM, 0.33 nM, 1.1 nM, 3.8 nM, 13 nM, 44 nM, 0.15 μM, 0.51 μM, 1.7 μM, 5.9 μM and 20 μM) were analysed as duplicates on the same microtitre plate. For this purpose, 100-fold concentrated solutions in DMSO were prepared by serial dilutions (1:3.4) of a 2 mM stock solution into a clear, 384-well microtitre plate (Greiner Bio-One, Frickenhausen, Germany). From this, 50 nl were transferred into a black test plate (Greiner Bio-One, Frickenhausen, Germany). The test was started by the addition of 2 μl of a 2.5-fold concentrated BRD4 solution (final concentration typically 10 nM in the 5 μl of reaction volume) in aqueous assay buffer [50 mM HEPES pH 7.5, 50 mM sodium chloride (NaCl), 0.25 mM CHAPS and 0.05% serum albumin (BSA)] to the substances in the test plate. This was followed by a 10-minute incubation step at 22° C. for the pre-equilibration of putative complexes between BRD4 and the substances.
The mixture was then incubated in the dark at 22° C. for one hour and then at 4° C. for at least 3 hours and for no longer than overnight. The formation of BRD4/Ac-H4 complexes was determined by the measurement of the resonance energy transfer from the streptavidin-Eu cryptate to the anti-6His-XL665 antibody present in the reaction. For this purpose, the fluorescence emission was measured at 620 nm and 665 nm after excitation at 330-350 nm in a TR-FRET measuring instrument, for example a Rubystar or Pherastar (both from BMG Lab Technologies, Offenburg, Germany) or a Viewlux (Perkin-Elmer). The ratio of the emissions at 665 nm and at 622 nm was taken as an indicator of the amount of BRD4/Ac-H4 complexes formed.
The data (ratios) obtained were normalized, with 0% inhibition corresponding to the mean from the measurements for a set of controls (typically 32 data points) in which all the reagents were present. In these, in place of test substances, 50 nl of DMSO (100%) were used Inhibition of 100% corresponded to the mean from the measurements for a set of controls (typically 32 data points) in which all the reagents except BRD4 were present. The IC50 was determined by regression analysis based on a 4-parameter equation (minimum, maximum, IC50, Hill; Y=max+(min−max)/(1+(X/IC50)^Hill)).

[2] = system: LAPC-4 cells; assay: Cell proliferation assay (alamarBlue), LAPC-4; type: cell-based; conditions: Homo sapiens, LAPC4, Prostate, 1 nM methyltrienolone, 168 hours, inhibition of cell proliferation
Protocol: (§1) In accordance with the invention, the ability of the substances to inhibit cell proliferation was determined Cell viability was determined by means of the alamarBlue® reagent (Invitrogen) in a Victor X3 Multilabel Reader (Perkin Elmer). The excitation wavelength was 530 nm and the emission wavelength […].
The LAPC-4 cells (ATCC, PTA-1441TM) were sown at a concentration of 4000 cells/well in 100 μl of growth medium (RPMI1640, 2 mM L-glutamine, 10% cFCS) on 96-well microtitre plates. One day later, the LAPC-4 cells were treated with 1 nM methyltrienolone and various substance dilutions.
(§2) The MDA-MB-231 cells (DSMZ, ACC 732) were sown at a concentration of 4000 cells/well in 100 μl of growth medium (DMEM/Ham's F12 medium, 10% FCS) on 96-well microtitre plates. After overnight incubation at 37° C., the fluorescence values (CI values) were determined. Then the plates were treated with various substance dilutions (1E-5 M, 3E-6 M, 1E-6 M, 3E-7 M, 1E-7 M, 3E-8 M, 1E-8 M) and incubated at 37° C. for 72 (MV-4-11, LOX-IMVI cells), 96 (MOLM-13, B16F10, […] cells), 120 (MOLP-8, KMS-12-PE cells) or 168 (LAPC-4 cells) hours. Subsequently, the fluorescence values were determined (CO values). For the data analysis, the CI values were subtracted from the CO values and the results were compared between cells which had been treated with various dilutions of the substance or only with buffer solution. The ICso values (substance concentration needed for 50% inhibition of cell proliferation) were calculated therefrom.
(§3) The substances were tested in the cell lines in Table 1, which represent the indications specified by way of example: […]

[3] = system: MOLM-13 cells; assay: Cell proliferation assay (alamarBlue), MOLM-13; type: cell-based; conditions: Homo sapiens, Leukaemia, 96 hours, inhibition of cell proliferation
Protocol: as §1
The MOLM-13 cells (DSMZ, ACC 554) were sown at a concentration of 4000 cells/well in 100 μl of growth medium (RPMI1640, 10% FCS) on 96-well microtitre plates.
as §2, §3

[4] = BRD4 (BD1) / acetylated histone H4 peptide, TR-FRET, read-out: IC50 (BRD4)

| SMILES | IC50 [1, 4] | IC50 [2] | IC50 [3] | IC50 [1] |
| --- | --- | --- | --- | --- |
| Cc1c2c(cn1C)-n1c(C)nnc1[C@H](CC(=O)N1CCN3C(=O)CCC3C1)N=C2c1ccc(Cl)cc1 (single isomer, unassigned; (-)) [Example 23] | 50 nM | 470 nM | 880 nM |  |
| Cc1c2c(cn1C)-n1c(C)nnc1[C@H](CC(=O)OC(C)(C)C)N=C2c1ccccc1 [Example 4, (−)-2-(4S)-(1,7,8-Trimethyl-6-phenyl-4,8-dihydropyrrolo[3,4f][1,2,4]triazolo[4,3-a][1,4]diazepin-4-yl)acetic acid tert-butyl ester] |  |  |  | 310 nM |
| CC(=O)N1CC(NC(=O)C[C@@H]2N=C(c3ccc(Cl)cc3)c3c(cn(C)c3C)-n3c(C)nnc32)C1 [Example 9, N-(1-Acetylazetidin-3-yl)-2-(4S)-[6-(4-chlorophenyl)-1,7,8-trimethyl-4,8-dihydropyrrolo[3,4-f][1,2,4]triazolo[4,3-a][1,4]diazepin-4-yl]acetamide] | 110 nM | 550 nM | 610 nM |  |
| CCNC(=O)C[C@@H]1N=C(c2ccc(Cl)cc2)c2c(cn(C)c2C)-n2c(C)nnc21 [Example 10, (−)-2-[(4S)-6-(4-Chlorophenyl)-1,7,8-trimethyl-4,8-dihydropyrrolo[3,4f][1,2,4]triazolo[4,3-a][1,4]diazepin-4-yl]-N-ethylacetamide] | 170 nM |  | 450 nM |  |
| Cc1nnc2n1-c1cn(C)nc1C(c1ccc(Cl)cc1)=N[C@H]2CC(=O)N1CCS(=O)(=O)CC1 [Example 15, 2-[(4S)-6-(4-Chlorophenyl)-1,8-dimethyl-4,8-dihydropyrazolo[3,4f][1,2,4]triazolo[4,3-a][1,4]diazepin-4-yl]-1-(1,1-dioxidothiomorpholin-4-yl)ethanone] | 450 nM |  | 2980 nM |  |
| Cc1nnc2n1-c1cn(C)nc1C(c1ccc(Cl)cc1)=NC2CC(=O)N1CCOCC1 (stereo not drawn) [Example 16, 2-[6-(4-Chlorophenyl)-1,8-dimethyl-4,8-dihydropyrazolo[3,4-f][1,2,4]triazolo[4,3-a][1,4]diazepin-4-yl]-1-(morpholin-4-yl)ethanone] | 700 nM |  | 4550 nM |  |
| Cc1nnc2n1-c1cn(C)nc1C(c1ccc(Cl)cc1)=NC2CC(=O)N1CC(F)C1 (stereo not drawn) [Example 17, 2-[6-(4-Chlorophenyl)-1,8-dimethyl-4,8-dihydropyrazolo[3,4-f][1,2,4]triazolo[4,3-a][1,4]diazepin-4-yl]-1-(3-fluoroazetidin-1-yl)ethanone] | 1140 nM |  |  |  |
| CCNC(=O)CC1N=C(c2ccc(Cl)cc2)c2nn(C)cc2-n2c(C)nnc21 (stereo not drawn) [Example 18, 2-[6-(4-Chlorophenol)-1,8-dimethyl-4,8-dihydropyrazolo[3,4-f][1,2,4]triazolo[4,3-a][1,4]diazepin-4-yl]-N-ethylacetamide] | 780 nM |  |  |  |
| Cc1c2c(cn1C)-n1c(C)nnc1[C@H](CC(=O)N1CCOCC1)N=C2c1ccccc1 [Example 19, 1-(Morpholin-4-yl)-2-[(4S)-1,7,8-trimethyl-6-phenyl-4,8-dihydropyrrolo[3,4f][1,2,4]triazolo[4,3-a][1,4]diazepin-4-yl]ethanone] | 240 nM | 700 nM | 1240 nM |  |
| Cc1c2c(cn1C)-n1c(C)nnc1[C@H](CC(=O)N1CC(Oc3ccccc3)C1)N=C2c1ccc(Cl)cc1 [Example 20, (−)-2-[(4S)-6-(4-Chlorophenyl)-1,7,8-trimethyl-4,8-dihydropyrrolo[3,4f][1,2,4]triazolo[4,3-a][1,4]diazepin-4-yl]-1-(3-phenoxyazetidin-1-yl)ethanone] | 60 nM | 410 nM | 920 nM |  |
| Cc1c2c(cn1C)-n1c(C)nnc1[C@H](CC(=O)N1CCOCC1)N=C2c1ccc(Cl)cc1 [Example 21] | 40 nM | 240 nM | 520 nM |  |
| Cc1c2c(cn1C)-n1c(C)nnc1[C@H](CC(=O)N1CCN(C(=O)OC(C)(C)C)CC1)N=C2c1ccc(Cl)cc1 [Example 22, (−)-4-{[(4S)-6-(4-Chlorophenyl)-1,7,8-trimethyl-4,8-dihydropyrrolo[3,4-f][1,2,4]triazolo[4,3-a][1,4]diazepin-4-yl]acetyl}piperazine-1-carboxylic acid tert-butyl ester] | 20 nM | 340 nM | 720 nM |  |
| Cc1c2c(cn1C)-n1c(C)nnc1C(Cc1nc(C3CC3)no1)N=C2c1ccc(Cl)cc1 (stereo not drawn) [Example 24, 6-(4-Chlorophenyl)-4-[(3-cyclopropyl-1,2,4-oxadiazol-5-yl)methyl]-1,7,8-trimethyl-4,8-dihydropyrrolo[3,4-f][1,2,4]triazolo[4,3-a][1,4]diazepine] | 50 nM |  | 80 nM |  |
| Cc1noc(CC2N=C(c3ccc(Cl)cc3)c3c(cn(C)c3C)-n3c(C)nnc32)n1 (stereo not drawn) [Example 25, 6-(4-Chlorophenyl)-1,7,8-trimethyl-4-[(3-methyl-1,2,4-oxadiazol-5-yl)methyl]-4,8-dihydropyrrolo[3,4-f][1,2,4]triazolo[4,3-a][1,4]diazepine] | 90 nM | 80 nM | 130 nM |  |
| CCc1noc(CC2N=C(c3ccc(Cl)cc3)c3c(cn(C)c3C)-n3c(C)nnc32)n1 (stereo not drawn) [Example 27, 6-(4-Chlorophenyl)-1,7,8-trimethyl-4-[(3-ethyl-1,2,4-oxadiazol-5-yl)methyl]-4,8-dihydropyrrolo[3,4-f][1,2,4]triazolo[4,3-a][1,4]diazepine] | 30 nM |  | 100 nM |  |
| Cc1c2c(cn1C)-n1c(C)nnc1C(Cc1nc(C(C)C)no1)N=C2c1ccc(Cl)cc1 (stereo not drawn) [Example 29, 6-(4-Chlorophenyl)-1,7,8-trimethyl-4-{[3-(propan-2-yl)-1,2,4-oxadiazol-5-yl]methyl}-4,8-dihydropyrrolo[3,4-f][1,2,4]triazolo[4,3-a][1,4]diazepine] | 30 nM |  | 80 nM |  |
| Cc1c2c(cn1C)-n1c(C)nnc1C(Cc1nc(C(C)(C)C)no1)N=C2c1ccc(Cl)cc1 (stereo not drawn) [Example 31, 4-[(3-tert-Butyl-1,2,4-oxadiazol-5-yl)methyl]-6-(4-chlorophenyl)-1,7,8-trimethyl-4,8-dihydropyrrolo[3,4-f][1,2,4]triazolo[4,3-a][1,4]diazepine] | 490 nM | 350 nM | 490 nM |  |
